# Laboratory results: patent US11524956B2, “Alkyne substituted quinazoline compound and methods of use” (Newgen Therapeutics, Inc., priority 2011, dated 2022)
# Read-outs that look alike come from different tables or passages of the source.
# Tests used:
# Rat brain concentration = type: in vivo, Sprague Dawley rats; details: Sprague Dawley, po, P.O. 5 mg/Kg; for concentration at 2 h / concentration at 4 h / concentration at 24 h: brain, 5 mg/kg
# Procedure: Brain concentration: Three rats are for brain collection (2h) only. Three rats are for brain collection (4 h) only. The rest 3 rats are for plasma (9 time points) and brain collection (24h).
# Brain Collection and Tissue Processing: Post blood collection, the brain was first perfused intracardially with ˜150 mL of ice-cold, 0.1 M Phosphate Buffered Saline (PBS) at pH7.4. Then, the dura was removed before weighing the brain. The brain was then dissected into smaller pieces, rinsed twice with ˜10 mL PBS, and then flash frozen on dry ice, and stored at −80° C. before analysis.
# Before tissue processing, rat brains were thawed. For the preparation of analytical standards, purchased frozen rat brains (from Pelfreez) were similarly thawed, dissected, rinsed with PBS, and 100 μL of Compound A stock solution (at 500 ng/mL and 1, 2 5, 10, and 50 μg/mL in acetonitrile) was spiked directly into the tissue. Both Compound A dosed and spiked brains then underwent the same processing procedures described below.
# Briefly, 2 mL of water was added to each brain before homogenization. Homogenize the brain in 2 to 3 sessions, each approximately 15 sec. The mechanical probe of the homogenizer was cleansed in water, 70% ethanol, and ethyl acetate after each sample. The resulting brain homogenates were then extracted with ethyl acetate three times (14 mL total), and centrifuged to separate the aqueous and organic phases after each extraction. Per brain, pooled organic phase were evaporated under a stream of nitrogen at 40° C. and the residues were reconstituted with 4 mL of mobile phase B. Compound A spiked brain samples in the 4 mL solutions had final concentrations of 12.5, 25, 50, 125, 250, 1250 ng/mL. The reconstituted samples were incubated for ˜15 minutes at 60° C. and, vortexed for 10 minutes to fully dissolve the analytes. The samples were centrifuged, and then further diluted with Mobile phase B (shown below) before LC/MS/MS analysis. Dilute 20 μL of reconstituted samples with 1.5 mL mobile phase B. Transfer and inject supernatant to […] system for analysis.
# NCI-H1975 cells = test: Anti-proliferation assay of NCI-H1975 cells (CCK-8); type: cell-based; details: Homo sapiens, NCI-H1975, 72 h, 3 days
# Procedure: The anti-proliferative assays were performed in triplicates. 3000 cell/well of N1975 cells were seeded in 96-well plate (medium: RPMI 1640, 5% FBS. 2 mM L-Glutamine). After 24 h, removal the medium in the plate was followed by the addition of compound of serial dilution in medium to the wells. After 3 days, the cells were treated with CCK-8 kit and incubated for additional 4 hours at 37° C. The plate was read at 450 nm. The log of the fractional growth inhibition was plotted against the log of the drug concentration, and the IC50 values were interpolated from the resulting linear regression curve fit. The IC50 value measured for Compound NT113 is <1000 nM.
structure (smiles),measurement,setting,value
"CN(C)C/C=C/C(=O)Nc1cc2c(Nc3ccc(F)c(Cl)c3)ncnc2cc1C#C[C@@H]1[C@H]2COC[C@@H]12 [Example 4, (E)-N-(4-(3-chloro-4-fluorophenylamino)-7-(2-((1R,5S,6s)-3-oxa-bicyclo[3.1.0]hexan-6-yl)ethynyl)quinazolin-6-yl)-4-(dimethylamino)but-2-enamide]",concentration at 2 h,"Rat brain concentration; 2 hr, read-out: Brain Conc. (ng/g) Mean",156 ng/g
same,concentration at 2 h,"Rat brain concentration; 2 hr, read-out: Brain Conc. (ng/g) No. 1",118 ng/g
same,concentration at 2 h,"Rat brain concentration; 2 hr, read-out: Brain Conc. (ng/g) No. 2",156 ng/g
same,concentration at 2 h,"Rat brain concentration; 2 hr, read-out: Brain Conc. (ng/g) No. 3",194 ng/g
same,concentration at 4 h,"Rat brain concentration; 4 hr, read-out: Brain Conc. (ng/g) Mean",173 ng/g
same,concentration at 4 h,"Rat brain concentration; 4 hr, read-out: Brain Conc. (ng/g) No. 1",127 ng/g
same,concentration at 4 h,"Rat brain concentration; 4 hr, read-out: Brain Conc. (ng/g) No. 2",209 ng/g
same,concentration at 4 h,"Rat brain concentration; 4 hr, read-out: Brain Conc. (ng/g) No. 3",185 ng/g
same,concentration at 24 h,"Rat brain concentration; 24 hr, read-out: Brain Conc. (ng/g) Mean",17.6 ng/g
same,concentration at 24 h,"Rat brain concentration; 24 hr, read-out: Brain Conc. (ng/g) No. 1",26 ng/g
same,concentration at 24 h,"Rat brain concentration; 24 hr, read-out: Brain Conc. (ng/g) No. 2",11 ng/g
same,concentration at 24 h,"Rat brain concentration; 24 hr, read-out: Brain Conc. (ng/g) No. 3",15.8 ng/g
same,Kp at 2 h,"Rat brain concentration; brain/plasma, 2 hr, read-out: B/P ratio",4
same,Kp at 4 h,"Rat brain concentration; brain/plasma, 4 hr, read-out: B/P ratio",4.4
same,Kp at 24 h,"Rat brain concentration; brain/plasma, 24 hr, read-out: B/P ratio",8.7
same,IC50,NCI-H1975 cells; read-out: Cell Proliferation Inhibition IC50 (nM) NCI-H1975,100 to 1000 nM
same,IC50,NCI-H1975 cells; read-out: IC50 NCI-H1975 anti-proliferation,< 1000 nM
